Data taken from patent publication US20200009197A1, “COMPOSITIONS AND METHODS FOR THE REPROGRAMMING OF CELLS INTO CARDIOMYOCYTES” (Duke University, priority 2014, published 2020).

Columns and labels:
[1] = cited from earlier work
[2] = during controlled therapy; cited from earlier work
[3] = test system: neonatal cardiac fibroblasts; assay: qPCR of cardiac and pluripotency gene expression in neonatal cardiac fibroblasts (with or without miR combo transfection); assay type: cell-based, Mouse (C57BL/6)
Description: Mouse (C57BL/6) neonatal cardiac fibroblasts or tail tip fibroblasts were isolated from 2 day old mouse neonates according to known methods e.g., outlined in Jayawardena et al [Jayawardena T, Mirotsou M, Dzau V J. Direct reprogramming of cardiac fibroblasts to cardiomyocytes using microRNAs. Methods in molecular biology. 2014; 1150:263-272]. Cells were cultured in growth media containing DMEM (ATCC) supplemented with 15% v/v FBS and 1% v/v penicillin/streptomycin. Cells were used at passage 1 or passage 2.
Cells were seeded at 5000 cells/cm^2 in growth media. Twenty-four hours later growth media was replaced with chemically defined reprogramming media (Advanced DMEM/F12, 0.2% w/v BSA, 250 μM Ascorbic Acid, 1× Insulin-Transferrin-Selenium, 1× L-Glutamine, 1× Penicillin-Streptomycin). Fresh media was added every two days.
Fibroblasts were seeded into a 24 well-plate at 9,000 cells/well. […]
The GM comprises the following: DMEM (ATCC#30-2002), 15% v/v embryonic stem cell qualified fetal bovine serum, and 1× penicillin/streptomycin. […] Differentiation was assessed by qPCR, immunocytochemistry, and flow cytometry.

| Compound | soluble to, in DMSO ([1]; DMSO) | soluble to, in ethanol [1] | further results |
| --- | --- | --- | --- |
| Cc1cccc(-c2nn(C(=S)Nc3ccccc3)cc2-c2ccnc3ccccc23)n1 [A83-01, 3-(6-Methyl-2-pyridinyl)-N-phenyl-4-(4-quinolinyl)-1H-pyrazole-1-c arbothioamide] | 100 mM |  |  |
| O=C(O)C=C(CCc1ccc(Cl)cc1)c1ccccc1 [PS48, 5-(4-Chloro-phenyl)-3-phenyl-pent-2-enoic acid] |  |  | solubility in DMSO ([1]; DMSO): soluble in DMSO |
| COC(=O)C1=C(C)NC(C)=C([N+](=O)[O-])[C@@H]1c1ccccc1C(F)(F)F [R(+)Bay K 8644, R-(+)-1,4-Dihydro-2,6-dimethyl-5-nitro-4-[2-(trifluoromethyl)phenyl]-3-pyridinecarboxylic acid methyl ester] | 100 mM | 100 mM |  |
| O=C(O)C(Cc1c[nH]c2ccccc12)N1C(=O)c2ccccc2C1=O (stereo not drawn) [RG108, 2-(1,3-Dioxo-1,3-dihydro-2H-isoindol-2-yl)-3-(1H-indol-3-yl)propionic acid] | 100 mM | 100 mM |  |
| CCCC(CCC)C(=O)O [Valproic acid, 2-propylpentanoic acid] |  |  | serum or plasma concentrations [2]: 20 to 100 mg/L |
| O=C1O[C@H]([C@@H](O)CO)C(O)=C1O [ascorbic acid] |  |  | effects of miR-combo upon cardiac gene expression ([3]; added to growth media): augmented; additive effect on cardiac gene expression at gene and protein level ([3]; increasing concentration): increased the additive effect |
